Literature values, collected in patent EP1932526A1, “Morin, a new inhibitor of microbial hyaluronate lyase” (Leibniz-Institut für Naturstoff-Forschung und …, priority 2006, dated 2008).

Conditions: species and route not given

O=c1c(O)c(-c2ccc(O)cc2O)oc2cc(O)cc(O)c12 [morin, 2',3,4',5,7-pentahydroxyflavone]
LD50 value: 555 mg/kg
